According to US20090214500A1, “PREVENTION AND TREATMENT OF OSTEOCHONDROSIS IN ANIMALS AND HUMANS” (U.S. Borax Inc., priority 2005, published 2009):
“Also recorded” adds a separate entry of the source.

Assays:
sows [1] = assay: Preliminary pilot study, oral boron supplement to gestating and lactating sows; settings: sows given oral 1 mg boron per kg body weight; first 600 pigs, preliminary analysis
Procedure: (§2) Sows were fed a standard corn-soy diet. Half of the sows received an oral administration of a boron supplement to provide 1 mg boron per kg body weight.

Duroc and Yorkshire pigs = assay: Boron supplementation and OC-associated lameness in swine (Example 1); assay type: in vivo, pig
Procedure: The basal diet consisted of commercial corn-soy diet containing 10 ppm boron.
Test diet group B was fed a basal diet plus 25 mg/kg boron as sodium borate decahydrate (borax). Test diet group A was fed a basal diet plus 25 mg/kg boron as sodium borate decahydrate (borax) and 250 mg/kg ascorbic acid.
Pigs were weighed at the beginning of the study, 4 weeks later and every 3 weeks until the end of the study. Animals were scored for soundness on a 5-point scale at each weighing. (Five-point scale: 1=no soundness defects; 2=minor soundness issues but still sound enough for retention as breeding animal; 3=not sound enough for retention for breeding but still marketable; 4=unsound, likely to be rejected at slaughter; 5=severely lame, requiring euthanasia for humane reasons.) Grading was done by the caretaker and the investigator at all weighing times. An experienced independent treatment-blind rater also evaluated the soundness of each animal and the ratings he provided were compared with the ratings of the caretaker and investigator by use of Cohen's Kappa test.
The animals were housed in a modern curtain sided barn with deep straw bedding, with ad libitum access to feed and water. Waterers and feeders were on a concrete pad but the remainder of the flooring was deep straw over a ground limestone and sand base. Floor space allowances exceeded the recommendations of the Guide for the Care and Use of Agricultural Animals in Agricultural Research and Teaching, First Revised Edition, 1999. Federation of Animal Science Societies. Savoy, Ill.
The basal diet (no boron supplemented) was analysed and found to contain boron at the rate of 10 ppm which is typical for a corn-soybean meal based diet.
At the end of the study the pigs were transported to a laboratory where they were euthanized and necropsied. […]
At necropsy, samples of liver, heart, kidney, fat, skeletal muscle, proximal tibia, blood, and the rostral snout were retained and frozen at −40° C. prior to chemical analysis. All joints of the axial skeleton were evaluated for the presence of gross lesions of osteochondrosis and graded on a 5 point scale. […]
Mean joint lesion scores, growth rate and soundness scores by treatment and by factors boron and ascorbate were compared using an analysis of variance and t-test as appropriate. Soundness scores were dichotomised into binary categorical variables for lameness (soundness score>2) and for absence of defects (soundness<2), and the binary variables analysed by chi-square and logistic regression.
Tissue specimens stained with H&E were examined microscopically for the presence of lesions of osteochondrosis. […] Each tissue section was scored by a treatment-blind board-certified pathologist.

pigs [2] = assay: 3-NPB with or without supplemental boron in pigs, lameness and joint lesions; settings: for Clinical Lameness Score Normal, count of pigs / Clinical Lameness Score Visible Lameness, count of pigs: 5 pigs
Procedure: The pigs were evaluated for lameness daily and euthanized on day 13 and the joints and other organs were examined.

sows [3] = assay: Observation in sows fed 50 ppm supplemental boron in late gestation and early lactation; settings: sow diets with 50 ppm supplemental boron
Procedure: as §2

sows [4] = assay: Sow and litter trial in a commercial swine operation during a PRRSV outbreak; assay type: in vivo, pig; settings: sows given oral 1 mg boron per pound BW per day
Procedure: To test the effect of boron on sows and their litters, a trial was established in a large commercial swine operation during an outbreak of porcine viral reproductive and respiratory disease (PRRSV). Boron was administered orally to a group of 51 sows individually housed in crates at the rate of 1 mg boron per pound BW per day beginning 1 week prior to farrowing and continuing until the piglets were weaned at 14 days of age. […] Boron treatment was supplied as a single daily dosing and was discontinued at weaning. All sows were fed a standard commercial sow diet.

[5] = assay type: in vivo; settings: one pig of about 85 pounds kept on boron 50 ppm plus ascorbate 125 ppm
Procedure: (§1) Boron was added to the diet of sows at 1 mg/kg body weight as boric acid. […] Among a group of 95 piglets the birth to weaning mortality was 2 piglets. The usual mortality for this farm was about 5 to 7%. These piglets remained on boron 50 ppm plus ascorbate 125 ppm. One pig was euthanized and examined at a weight of about 85 pounds. […] All bones of the appendicular skeleton were sectioned on the band saw.

pigs [6] = settings: 50 ppm boron as boric acid
Text: An Iowa farm treated a group of about 100 pigs with 50 ppm boron as boric acid.

sows [7] = assay type: in vivo
Procedure: as §1

[8] = 50 ppm added B in diet, 28 days, 12 pens
[9] = supplemental boron 50 mg/kg vs 0, p<0.05
[10] = boron supplementation 50 ppm together with 3-NPB 1 gram daily × 10 days
[11] = boron supplementation 50 ppm, 3-NPB none

Structure (SMILES): [B] [Boron]
- piglet weight at 12 days of age (sows [1]): 8.5 pounds
- pre-weaning mortality (sows [1]): 16%
- Average daily gain (grams per day) (crossbred pigs; [8]): 549 grams per day
- Avg. daily feed intake (crossbred pigs; [8]): 1270
- Feed Conversion Ratio (feed/gain) (crossbred pigs; [8]): 2.32 feed/gain
- reduction of phosphorus excretion per unit of production (crossbred pigs; boron added to the diet, compared with no added boron): 15%
- effect on average daily gain (crossbred pigs; [9]): increased
- effect on fecal phosphorus excretion per unit of growth (crossbred pigs; [9]): reduced
- effect on feed conversion ratio (crossbred pigs; [9]): improved
- effect on phosphorus digestibility (crossbred pigs; [9]): improved
- effect on daily feed intake (crossbred pigs; supplemental boron 50 mg/kg vs 0, p>0.20): not significantly modified
- joint health compared with basal diet with no supplemental boron (FIG. 1) (Duroc and Yorkshire pigs; basal diet plus 25 mg/kg boron as sodium borate decahydrate (borax), with or without 250 mg/kg ascorbic acid): healthier joints
- incidence of osteochondrosis-associated lameness (Duroc and Yorkshire pigs; growing swine, 25 mg/kg boron as borax in feed): effective in reduction of the incidence of osteochondrosis-associated lameness
- occurrence of osteochondrosis (OC) (Duroc and Yorkshire pigs; pigs, supplemental boron 25 ppm to 50 ppm in feed, FIGS. 1, 3 and 4): reduction in the occurrence of osteochondrosis; also recorded: significant reduction in the occurrence of OC
- soundness scores / lameness associated with early rapid growth (FIG. 3) (Duroc and Yorkshire pigs; rapidly growing swine, 25 mg/kg boron as borax in feed, 25 mg/kg): useful in cartilage protection and prevention of lameness; also recorded: reduction of soundness scores associated with early growth
- Clinical Lameness Score Normal, count of pigs (pigs [2]; [10]): 4
- Clinical Lameness Score Visible Lameness, count of pigs (pigs [2]; [10]): 1
- Clinical Lameness Score Normal, count of pigs (pigs [2]; [11]): 5
- Clinical Lameness Score Visible Lameness, count of pigs (pigs [2]; [11]): 0
- effect of supplemental boron in preventing the lameness induced by 3-NPB (pigs [2]; chi-square analysis): significant effect; also recorded: could be prevented
- pigs that developed lameness (pigs [2]; supplemental boron 50 ppm when 3-NPB was provided): one in 5
- prevalence and severity of osteochondrosis lesions in shoulder, stifle, hock and elbow joints (pigs [2]; supplemental boron, no 3-NPB): lowest prevalence of lesions and the lowest severity
- piglet quality as assessed by uniformity, growth, and general thrift (sows [3]): improved
- pre-weaning piglet mortality (sows [3]): reduced
- effect on litter size at birth (sows [4]): no effects
- effect on piglet birth weight (sows [4]): no effects
- likelihood to conceive relative to control sows (sows [4]): 1.2 times
- return to estrus, average days quicker than control sows (sows [4]): 1.6 days
- piglet mortality (sows [4]; from 1 week prior to farrowing until weaning): 15.2%
- piglet weight at 12 days of age (sows [4]; from 1 week prior to farrowing until weaning at 14 days): 9.01 lbs
- bone mineralization at necropsy [5]: excellent mineralization
- joint abnormalities at necropsy [5]: No abnormalities were observed in any of the joints

Structure (SMILES): OB(O)O [boric acid]
- growth rate (pigs [6]): excellent growth rate
- lameness/unsoundness rate in the test group (pigs [6]; estimated previous rate about 25 to 30%): zero
- pigs developing signs of lameness or unsoundness (pigs [6]; about 100 pigs): None
- birth to weaning mortality (sows [7]; pig, in vivo): 2 piglets
- outcome of three noticeably and seriously lame sows (sows [7]; sows, boron 1 mg/kg body weight as boric acid in diet): became perfectly sound
